# Measurements taken from patent US8846699B2, “Quinazoline derivatives as a multiplex inhibitor and method for the preparation thereof” (Hanmi Pharm. Co., Ltd., priority 2005, dated 2014).
# Assays:
# [1] = test system: Human Umbilical Vein Endothelial Cell (HUVEC); experiment: Inhibitory effect on growth of human umbilical vein endothelial cell (HUVEC), MTS; assay type: cell-based; details: Homo sapiens, 96 h, 10 ng/ml VEGF, absorbance 490 nm
# [2] = biological target: VEGFR2 (KDR) (Homo sapiens (Human), UniProt P35968); experiment: VEGFR2 (KDR) enzyme assay, fluorescence polarization; assay type: biochemical; details: 5 μM ATP, poly(Glu, Tyr) substrate
# Summary of the method: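 Buffer: 20 mM HEPES pH 7.4 with 5 mM MgCl2, 2 mM MnCl2 and 50 μM Na3VO4. Compound (0.0001–10 μM) was premixed 10 min with VEGFR2 (200 ng/10 μl), then poly(Glu,Tyr) substrate (10 ng/ml) and 5 μM ATP were added for 1 h at room temperature. EDTA-quenched samples were read by FP after 30 min with antibody and tracer.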
# [3] = biological target: EGFR1 (HER-1) (Homo sapiens (Human), UniProt P00533); experiment: EGFR1 (HER-1) enzyme assay, fluorescence polarization; assay type: biochemical; details: 100 μM ATP, poly(Glu, Tyr) substrate
# [4] = test system: skin cancer cell line, A431; experiment: Inhibitory effect on growth of cancer cell line A431, SRB; assay type: cell-based; details: Homo sapiens, A-431, 72 h, overexpressed EGFR1 (HER-1)
# Summary of the method: (§1)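 Growth inhibition was measured by sulforhodamine-B staining (absorbance 570 nm) of TCA-fixed cells after 72 h compound exposure at 37 °C, 5% CO2. Test concentrations ran from 10 μM in 10-fold steps to 10^−4, with DMSO below 1%, in 10% FBS DMEM.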
# [5] = test system: breast cancer cell line, SK-Br3; experiment: Inhibitory effect on growth of cancer cell line SK-Br3, SRB; assay type: cell-based; details: Homo sapiens, SK-BR-3, 72 h, overexpressed EGFR2 (HER-2)
# Summary of the method: as §1
# [6] = test system: colon and rectal cancer cell line, SW-620; experiment: Inhibitory effect on growth of cancer cell line SW-620, SRB; assay type: cell-based; details: Homo sapiens, 72 h, not having overexpressed EGFR and EGFR2
# Summary of the method: as §1
# Sequence of VEGFR2 (KDR) (P35968 20-1356): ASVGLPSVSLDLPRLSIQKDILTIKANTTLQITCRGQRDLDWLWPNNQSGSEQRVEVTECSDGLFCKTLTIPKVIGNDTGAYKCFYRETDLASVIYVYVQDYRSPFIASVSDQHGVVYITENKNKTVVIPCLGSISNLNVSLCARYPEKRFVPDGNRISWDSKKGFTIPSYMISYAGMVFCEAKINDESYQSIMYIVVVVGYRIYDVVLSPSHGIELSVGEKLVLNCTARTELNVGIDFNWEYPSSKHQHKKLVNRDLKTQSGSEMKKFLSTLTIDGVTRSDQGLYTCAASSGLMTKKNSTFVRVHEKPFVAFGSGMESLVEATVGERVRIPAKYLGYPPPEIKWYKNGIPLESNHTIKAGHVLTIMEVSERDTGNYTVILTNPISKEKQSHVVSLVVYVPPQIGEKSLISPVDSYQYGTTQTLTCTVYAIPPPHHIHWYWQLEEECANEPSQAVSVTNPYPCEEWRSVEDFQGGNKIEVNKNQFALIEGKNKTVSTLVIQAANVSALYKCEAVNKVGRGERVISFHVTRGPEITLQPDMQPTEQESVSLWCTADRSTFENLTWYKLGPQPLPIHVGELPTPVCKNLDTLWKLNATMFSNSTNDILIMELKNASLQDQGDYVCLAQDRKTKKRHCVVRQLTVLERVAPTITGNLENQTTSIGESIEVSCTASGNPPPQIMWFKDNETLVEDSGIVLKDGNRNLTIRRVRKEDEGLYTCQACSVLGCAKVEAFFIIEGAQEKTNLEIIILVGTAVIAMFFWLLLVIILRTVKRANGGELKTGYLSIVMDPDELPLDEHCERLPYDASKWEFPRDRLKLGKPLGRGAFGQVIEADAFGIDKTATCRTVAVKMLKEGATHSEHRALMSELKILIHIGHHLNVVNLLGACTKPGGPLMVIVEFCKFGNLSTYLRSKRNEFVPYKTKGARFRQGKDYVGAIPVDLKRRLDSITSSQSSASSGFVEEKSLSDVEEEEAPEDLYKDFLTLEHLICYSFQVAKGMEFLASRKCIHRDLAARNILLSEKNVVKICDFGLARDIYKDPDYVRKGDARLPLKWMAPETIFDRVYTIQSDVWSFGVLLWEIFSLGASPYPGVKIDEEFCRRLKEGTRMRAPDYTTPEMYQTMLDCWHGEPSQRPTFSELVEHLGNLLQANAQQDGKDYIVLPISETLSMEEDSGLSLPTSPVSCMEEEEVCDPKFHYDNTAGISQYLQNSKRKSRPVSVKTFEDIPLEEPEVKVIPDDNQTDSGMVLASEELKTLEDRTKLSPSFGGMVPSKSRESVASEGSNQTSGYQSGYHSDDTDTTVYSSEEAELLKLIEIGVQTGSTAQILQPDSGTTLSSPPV
# Sequence of EGFR1 (HER-1) (P00533 25-1210): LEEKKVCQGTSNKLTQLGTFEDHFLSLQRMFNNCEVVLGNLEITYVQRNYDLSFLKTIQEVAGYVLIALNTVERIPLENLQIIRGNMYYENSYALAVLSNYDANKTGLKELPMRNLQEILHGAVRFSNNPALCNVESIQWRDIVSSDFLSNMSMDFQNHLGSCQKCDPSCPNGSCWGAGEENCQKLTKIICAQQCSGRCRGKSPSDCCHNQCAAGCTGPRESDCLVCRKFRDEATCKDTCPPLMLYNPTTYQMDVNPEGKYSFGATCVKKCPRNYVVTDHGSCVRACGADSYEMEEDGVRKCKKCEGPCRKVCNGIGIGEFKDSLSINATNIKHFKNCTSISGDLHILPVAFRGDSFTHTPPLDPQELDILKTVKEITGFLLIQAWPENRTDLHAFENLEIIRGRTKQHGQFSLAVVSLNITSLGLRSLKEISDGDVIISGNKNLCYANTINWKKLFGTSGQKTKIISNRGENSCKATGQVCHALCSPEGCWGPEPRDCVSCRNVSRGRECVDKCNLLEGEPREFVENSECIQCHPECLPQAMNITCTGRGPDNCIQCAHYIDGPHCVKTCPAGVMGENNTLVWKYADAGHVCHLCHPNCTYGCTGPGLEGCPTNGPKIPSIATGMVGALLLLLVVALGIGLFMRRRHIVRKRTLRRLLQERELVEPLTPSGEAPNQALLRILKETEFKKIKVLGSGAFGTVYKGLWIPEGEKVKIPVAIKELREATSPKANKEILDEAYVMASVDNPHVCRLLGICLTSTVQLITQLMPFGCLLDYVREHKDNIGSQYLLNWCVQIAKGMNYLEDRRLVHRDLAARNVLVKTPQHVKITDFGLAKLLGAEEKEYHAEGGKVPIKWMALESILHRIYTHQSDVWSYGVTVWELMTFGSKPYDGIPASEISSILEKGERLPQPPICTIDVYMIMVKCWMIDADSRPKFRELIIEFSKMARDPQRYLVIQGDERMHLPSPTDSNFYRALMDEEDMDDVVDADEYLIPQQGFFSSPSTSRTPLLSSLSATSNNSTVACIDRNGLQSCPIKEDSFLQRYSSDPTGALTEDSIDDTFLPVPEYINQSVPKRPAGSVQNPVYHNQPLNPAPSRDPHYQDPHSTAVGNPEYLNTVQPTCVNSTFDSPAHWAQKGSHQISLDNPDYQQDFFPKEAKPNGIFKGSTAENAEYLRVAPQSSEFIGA
SMILES,IC50 [1] [nM],IC50 [2] [nM],IC50 [3] [nM],IC50 [4] [nM],IC50 [5] [nM],IC50 [6] [nM]
"C=CC(=O)Nc1cc2c(Nc3ccc(Br)cc3F)ncnc2cc1OCCNC(=O)N1CCNCC1 [Example 94, piperazine-1-carboxylic acid {2-[6-acryloylamino-4-(4-bromo-2-fluoro-phenylamino)-quinazolin-7-yloxy]-ethyl}-amide]",694,698,698,739,2560,2320
"C=CC(=O)Nc1cc2c(Nc3ccc(Br)cc3F)ncnc2cc1OCCNC(=O)N1CCN(C(C)=O)CC1 [Example 95, 4-acetyl-piperazine-1-carboxylic acid {2-[6-acryloylamino-4-(4-bromo-2-fluoro-phenylamino)-quinazolin-7-yloxy]-ethyl}-amide]",786,782,76,86,236,10000
"C=CC(=O)Nc1cc2c(Nc3ccc(Br)cc3F)ncnc2cc1OCCNC(=O)N1CCN(C)CC1 [Example 96, 4-methyl-piperazine-1-carboxylic acid {2-[6-acryloylamino-4-(4-bromo-2-fluoro-phenylamino)-quinazolin-7-yloxy]-ethyl}-amide]",352,358,13,21,239,10000
"C=CC(=O)Nc1cc2c(Nc3ccc(Br)cc3F)ncnc2cc1OCCNC(=O)C1CCCN1 (stereo not drawn) [Example 97, pyrrolidine-2-carboxylic acid {2-[6-acryloylamino-4-(4-bromo-2-fluoro-phenylamino)-quinazolin-7-yloxy]-ethyl}-amide]",867,658,1950,2380,10000,2740
"C=CC(=O)Nc1cc2c(Nc3ccc(Br)cc3F)ncnc2cc1OCCNC(=O)CN1CCCCC1 [Example 101, N-{4-(4-bromo-2-fluoro-phenylamino)-7-[2-(2-piperidin-1-yl-acetylamino)-ethoxy]-quinazolin-6-yl}-acrylamide]",964,857,7,8,76,2920
"C=CC(=O)Nc1cc2c(Nc3ccc(Br)cc3F)ncnc2cc1OCCNC(=O)CN1CCN(C)CC1 [Example 102, N-(4-(4-bromo-2-fluoro-phenylamino)-7-{2-[2-(4-methyl-piperazin-1-yl)-acetylamino]-ethoxy}-quinazolin-6-yl)-acrylamide]",682,654,12,15,112,727
"C=CC(=O)Nc1cc2c(Nc3ccc(Br)cc3F)ncnc2cc1OCCNC(=O)CN1CCOCC1 [Example 103, N-{4-(4-bromo-2-fluoro-phenylamino)-7-[2-(2-morpholin-4-yl-acetylamino)-ethoxy]-quinazolin-6-yl}-acrylamide]",932,782,32,35,399,3670
"C=CC(=O)Nc1cc2c(Nc3ccc(Br)cc3F)ncnc2cc1OCCNC(=O)CCN1CCCCC1 [Example 104, N-{4-(4-bromo-2-fluoro-phenylamino)-7-[2-(3-piperidin-1-yl-propionylamino)-ethoxy]-quinazolin-6-yl}-acrylamide]",855,945,14,16,93,5260
"C=CC(=O)Nc1cc2c(Nc3ccc(Br)cc3F)ncnc2cc1OCCNC(=O)C1CCCN1C(C)=O (stereo not drawn) [Example 105, 1-acetyl-pyrrolidine-2-carboxylic acid {2-[6-acryloylamino-4-(4-bromo-2-fluoro-phenylamino)-quinazolin-7-yloxy]-ethyl}-amide]",654,654,25,30,100,6700
"C=CC(=O)Nc1cc2c(Nc3ccc(Br)cc3F)ncnc2cc1OCCNC(=O)C1CCCN1C(=O)CC (stereo not drawn) [Example 106, 1-propionyl-pyrrolidine-2-carboxylic acid {2-[6-acryloylamino-4-(4-bromo-2-fluoro-phenylamino)-quinazolin-7-yloxy]-ethyl}-amide]",951,853,196,264,311,2800
"C=CC(=O)Nc1cc2c(Nc3ccc(Br)cc3F)ncnc2cc1OCCNC(=O)CN1CCCC1 [Example 107, N-{4-(4-bromo-2-fluoro-phenylamino)-7-[2-(2-pyrrolidin-1-yl-acetylamino)-ethoxy]-quinazolin-6-yl}-acrylamide]",289,200,45,48,119,3590
"C=CC(=O)Nc1cc2c(Nc3ccc(Br)cc3F)ncnc2cc1OCCNC(=O)CN1CC=CC1 [Example 108, N-{4-(4-bromo-2-fluoro-phenylamino)-7-[2-(2-2,5-dihydro-pyrrol-1-yl-acetylamino)-ethoxy]-quinazolin-6-yl}-acrylamide]",497,486,32,41,103,2950
"C=CC(=O)Nc1cc2c(Nc3ccc(Br)cc3F)ncnc2cc1OCC1=NCCO1 [Example 109, N-[4-(4-bromo-2-fluoro-phenylamino)-7-(4,5-dihydro-oxazol-2-ylmethoxy)-quinazolin-6-yl]-acrylamide]",486,478,125,147,572,10000
"C=CC(=O)Nc1cc2c(Nc3ccc(Br)cc3F)ncnc2cc1OCCNC(=O)CN1CCC1 [Example 110, N-[7-[2-(2-azetidin-1-yl-acetylamino)-ethoxy]-4-(4-bromo-2-fluoro-phenylamino)-quinazolin-6-yl]-acrylamide]",956,951,987,1020,1360,4590
"C=CC(=O)Nc1cc2c(Nc3ccc(Cl)cc3Cl)ncnc2cc1OCCNC(C)=O [Example 113, N-[7-(2-acetylamino-ethoxy)-4-(4-chloro-2-chloro-phenylamino)-quinazolin-6-yl]-acrylamide]",369,268,49,58,289,2200
"C=CC(=O)Nc1cc2c(Nc3ccc(Br)cc3Cl)ncnc2cc1OCCNC(C)=O [Example 115, N-[7-(2-acetylamino-ethoxy)-4-(4-bromo-2-chloro-phenylamino)-quinazolin-6-yl]-acrylamide]",934,854,42,45,897,10000
"C=CC(=O)Nc1cc2c(Nc3ccc(Cl)cc3F)ncnc2cc1OCCNC(=O)CN(C)C [Example 116, N-{4-(4-chloro-2-fluoro-phenylamino)-7-[2-(2-dimethylamino-acetylamino)-ethoxy]-quinazolin-6-yl}-acrylamide]",951,758,419,437,253,2960
"C=CC(=O)Nc1cc2c(Nc3cccc(Cl)c3F)ncnc2cc1OCCNC(=O)CN(C)C [Example 117, N-[4-(3-chloro-2-fluoro-phenylamino)-7-{2-[2-(dimethylamino)-acetamido]-ethoxy}quinazolin-6-yl]-acrylamide]",998,945,924,1240,1260,10000
"C=CC(=O)Nc1cc2c(Nc3ccc(F)c(F)c3F)ncnc2cc1OCCNC(C)=O [Example 118, N-[7-(2-acetylamino-ethoxy)-4-(2,3,4-trifluoro-phenylamino)-quinazolin-6-yl]-acrylamide]",681,489,14,15,79,725
"C=CC(=O)Nc1cc2c(Nc3cc(F)c(Br)cc3F)ncnc2cc1OCCNC(C)=O [Example 119, N-[7-(2-acetylamino-ethoxy)-4-(4-bromo-2,5-difluoro-phenylamino)-quinazolin-6-yl]-acrylamide]",921,782,12,14,178,2890
"C=CC(=O)Nc1cc2c(Nc3cc(Cl)c(Cl)cc3F)ncnc2cc1OCCNC(C)=O [Example 121, N-[7-(2-acetylamino-ethoxy)-4-(4,5-dichloro-2-fluoro-phenylamino)-quinazolin-6-yl]-acrylamide]",383,153,5,7,22,10000
